Where two headings read alike, the source gives them in different places.
Assays:
[1] = Local toxicity, subcutaneous osmotic pumps in nude mice; format: in vivo; set-up: key to Local toxicity: effects on skin and subcutaneous tissue: 0: no tissue reaction; *: light tissue reaction with hyperemia and mild inflammation; **: moderate tissue reaction with strong inflammation; ***: strong tissue reaction with necrosis and bleedings; conditions: 7 days; for Local tissue reactions: subcutaneous osmotic pump loaded with 0.25 mg
Method: Control mice were treated with the solvent. 3-6 animals were treated in each group.
The first set of experiments was carried out to investigate possible local and systemic toxic effects of podophyllotoxin, deoxypodophyllotoxin and picropodophyllin on nude mice. In the first experiment osmotic pumps loaded with either drug-free solvent, podophyllotoxin (0.25 mg), deoxypodophyllotoxin (0.25 mg) or picropodophyllin (0.25 mg) were implanted subcutaneously in the flank region. The drugs are delivered subcutaneously with a constant flow of 0.6 μl/h over 7 days. The volume of the pumps was 100 μl. After 7 days the mice were killed and the skin and subcutaneous tissue adjacent to the outlet of the pumps were analyzed and scored for tissue reactions by an experienced pathologist. There were 3 mice in each group.

insulin receptor (IR) = molecular target: T1, insulin receptor (IR) (Homo sapiens, UniProt P06213); experiment: Tyrosine phosphorylation of IR in intact FM55 melanoma cells; format: cell-based; conditions: 0.05 μM, 1 h
T1 construct: endogenous in cells; host or cells: FM55 melanoma cells
T1 sequence (P06213 28-1382): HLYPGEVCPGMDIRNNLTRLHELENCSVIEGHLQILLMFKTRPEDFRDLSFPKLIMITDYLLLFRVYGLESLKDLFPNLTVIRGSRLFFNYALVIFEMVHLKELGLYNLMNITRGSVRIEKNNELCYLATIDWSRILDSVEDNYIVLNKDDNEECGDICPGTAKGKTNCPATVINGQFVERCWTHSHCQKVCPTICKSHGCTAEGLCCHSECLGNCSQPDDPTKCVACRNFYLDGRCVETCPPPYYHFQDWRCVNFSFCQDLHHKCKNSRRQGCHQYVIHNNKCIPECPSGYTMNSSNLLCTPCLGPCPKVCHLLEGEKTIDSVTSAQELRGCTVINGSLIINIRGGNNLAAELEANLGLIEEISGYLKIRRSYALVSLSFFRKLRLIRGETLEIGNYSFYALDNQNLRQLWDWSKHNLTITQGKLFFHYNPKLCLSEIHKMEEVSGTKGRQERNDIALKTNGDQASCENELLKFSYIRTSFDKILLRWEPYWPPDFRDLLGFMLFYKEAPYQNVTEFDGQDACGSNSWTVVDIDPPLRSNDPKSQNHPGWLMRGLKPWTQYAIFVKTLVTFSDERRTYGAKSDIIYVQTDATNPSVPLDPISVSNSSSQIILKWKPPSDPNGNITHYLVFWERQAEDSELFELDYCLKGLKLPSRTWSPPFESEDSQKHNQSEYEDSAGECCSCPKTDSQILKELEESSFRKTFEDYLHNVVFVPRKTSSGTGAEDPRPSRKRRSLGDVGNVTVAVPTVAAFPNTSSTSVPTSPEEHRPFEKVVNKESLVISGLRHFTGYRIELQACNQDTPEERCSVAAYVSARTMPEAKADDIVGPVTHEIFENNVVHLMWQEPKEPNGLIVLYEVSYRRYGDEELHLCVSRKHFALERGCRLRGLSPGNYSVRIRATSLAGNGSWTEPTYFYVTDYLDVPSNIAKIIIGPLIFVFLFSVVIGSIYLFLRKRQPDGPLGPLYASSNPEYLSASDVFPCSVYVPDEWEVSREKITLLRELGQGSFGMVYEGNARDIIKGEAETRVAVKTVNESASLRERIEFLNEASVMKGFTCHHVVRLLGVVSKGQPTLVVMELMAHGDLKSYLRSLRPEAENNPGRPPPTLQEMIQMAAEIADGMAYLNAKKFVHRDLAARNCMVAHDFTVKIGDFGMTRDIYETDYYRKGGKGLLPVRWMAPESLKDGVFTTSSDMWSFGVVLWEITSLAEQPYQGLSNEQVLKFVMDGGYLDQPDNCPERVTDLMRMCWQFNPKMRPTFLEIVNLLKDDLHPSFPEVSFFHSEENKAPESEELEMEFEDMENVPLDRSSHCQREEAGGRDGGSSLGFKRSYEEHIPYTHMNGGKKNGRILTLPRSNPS
Method: Cells were cultured to subconfluency in 6-cm plates, and then fresh medium containing 10% FBS and the desired compounds were added for 1 h. The cells were then lyzed and subjected to immunoprecipitation using specific antibodies. Immunoprecipitates were resolved by sodium dodecyl sulphate polyacrylamide gel electrophoresis (SDS-PAGE) and transferred to nitro-cellulose membranes and incubated with anti-phosphotyrosine antibody. Antibodies to actin (in cell extract) or IGF-1R beta subunit were used as loading controls. After detection the films were scanned for quantification.
FM55 melanoma cells were cultured in the same way as described in Experiment 1. When reaching a density of 65,000 cells/cm^2 in the dishes, they were treated for 1 h with 0 (control) and 0.05 μM of picropodophyllin and podophyllotoxin, respectively. The cells were then isolated and subjected to immunoprecipitation of the IGF-1R, fibroblast growth factor receptor (FGFR), platelet-derived growth factor receptor (PDGFR), epidermal growth factor receptor (EGFR), insulin receptor (IR) and insulin substrate-1 (IRS-1) using antibodies to respective molecules. IRS-1 is a substrate of IGF-1R, and therefore its phosphorylation is dependent on phosphorylated IGF-1R. Gelelectrophoresis, Western blotting and quantification of the different signals were performed as described above.

[2] = system: R- cells (IGF-1R negative fibroblasts); experiment: Cell viability (XTT), R-; format: cell-based, murine; conditions: Mus musculus, Fibroblast, 48 h, read-out: EC50 for cell viability
Method: (§1) Cell proliferation kit II (Roche Inc.) is based on colorimetric change of the yellow tetrazolium salt XTT in orange formazan dye by the respiratory chain of viable cells (Roehm, N W, et al., J Immunol Methods 142:257-265, 1991). Cells seeded at a concentration of 5000/well in 100 μl medium in a 96-well plate were treated with different drugs in the given concentration. After 24 or 48 h the cells were incubated, according to the manufacturer's protocol, with XTT labelling mixture. After 4 h the formazan dye is quantified using a scanning multiwell spectrophotometer with a 495-nm filter. The absorbance is directly correlated with the number of viable cells. The standard absorbance curve was drawn by means of untreated cells seeded at a concentration of from 1000 to 10 000 cells/well with an increasing rate of 1000 cells/well. All standards and experiments were performed in triplicates.
(§2) 12 different types of cell lines were seeded in 96-well plates (medium volume in a well was 100 μl), at a concentration of 10,000 cells/cm^2 in Minimal Essential Medium supplemented with fetal calf serum. When the cells had reached a concentration of 65,000 cells/cm^2, they were treated with different doses of podophyllotoxin and picropodophyllin for 48 h. Cell viability was then assayed (see above). […]

IGF-1R = IGF-1R (Homo sapiens, UniProt P08069); experiment: IGF-1R tyrosine autophosphorylation, sandwich ELISA, cell-free; format: biochemical; set-up: expressed in transfected cells; host or cells: P6 cell line (murine fibroblasts overexpressing human IGF-1R); receptor captured on plates with an antibody to the beta subunit
Chain of IGF-1R (P08069 31-1367): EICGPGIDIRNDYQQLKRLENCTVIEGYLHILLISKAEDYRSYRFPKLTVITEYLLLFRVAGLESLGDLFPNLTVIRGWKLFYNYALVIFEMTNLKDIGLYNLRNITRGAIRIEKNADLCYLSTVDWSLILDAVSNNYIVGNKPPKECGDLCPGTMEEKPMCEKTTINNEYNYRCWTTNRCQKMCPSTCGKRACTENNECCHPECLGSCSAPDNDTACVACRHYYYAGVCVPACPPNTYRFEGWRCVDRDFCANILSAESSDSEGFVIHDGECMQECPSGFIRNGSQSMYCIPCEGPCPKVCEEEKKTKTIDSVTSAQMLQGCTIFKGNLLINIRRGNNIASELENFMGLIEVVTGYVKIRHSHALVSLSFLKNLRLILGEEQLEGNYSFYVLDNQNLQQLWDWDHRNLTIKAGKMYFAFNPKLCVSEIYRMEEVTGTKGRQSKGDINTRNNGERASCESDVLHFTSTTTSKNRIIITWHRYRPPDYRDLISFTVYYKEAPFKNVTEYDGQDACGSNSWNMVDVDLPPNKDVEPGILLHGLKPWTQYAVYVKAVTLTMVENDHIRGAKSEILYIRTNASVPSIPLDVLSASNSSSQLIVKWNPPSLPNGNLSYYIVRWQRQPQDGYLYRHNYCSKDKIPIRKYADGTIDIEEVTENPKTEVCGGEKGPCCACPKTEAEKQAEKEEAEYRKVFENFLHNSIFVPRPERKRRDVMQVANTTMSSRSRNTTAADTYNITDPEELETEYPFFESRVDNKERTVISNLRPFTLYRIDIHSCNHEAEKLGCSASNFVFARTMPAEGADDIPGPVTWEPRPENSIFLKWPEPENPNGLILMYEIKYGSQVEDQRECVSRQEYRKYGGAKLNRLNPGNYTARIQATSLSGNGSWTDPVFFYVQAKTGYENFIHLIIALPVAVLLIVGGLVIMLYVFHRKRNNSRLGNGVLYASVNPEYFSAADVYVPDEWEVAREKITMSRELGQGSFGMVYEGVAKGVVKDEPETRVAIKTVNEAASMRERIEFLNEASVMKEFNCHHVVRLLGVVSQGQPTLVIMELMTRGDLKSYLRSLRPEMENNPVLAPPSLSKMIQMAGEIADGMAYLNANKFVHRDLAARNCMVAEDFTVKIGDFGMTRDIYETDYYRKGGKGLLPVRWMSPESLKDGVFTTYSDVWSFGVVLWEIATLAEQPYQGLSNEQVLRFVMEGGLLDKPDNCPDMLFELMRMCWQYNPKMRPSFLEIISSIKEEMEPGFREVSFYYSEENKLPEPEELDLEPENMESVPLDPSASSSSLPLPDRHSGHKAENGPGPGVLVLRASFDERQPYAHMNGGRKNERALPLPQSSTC
Method: IGF-1R tyrosine autophosphorylation was analysed by a sandwich ELISA assay. Briefly, 96-well plates (Immunolon, Nunc) were coated overnight at 4° C. with 1 μg/well of the monoclonal antibody Ab-5 (LabVision) to the IGF-1R beta subunit. The plates were blocked with 1% BSA in PBS Tween for 1 h, then 80 µg/well of total protein lysate from the P6 cell line was added. As a negative control was used total protein lysate from the R-cell line. The investigated compounds were added in tyrosine kinase buffer without ATP at room temperature for 30 min, prior to kinase activation with ATP. Kinase assay was performed using the Sigma kit. After spectrophotometry the IC50 values of inhibitors were determined using the Regression function of Statistica program.
To investigate whether PPP interferes with the tyrosine autophosphorylation at the ATP level or at the substrate level (i.e., the tyrosine kinase domain of the IGF-1R […]), various concentrations of ATP (19-300 μM) were added to the reaction buffer during the assay.

HepG2 hepatoma cell line = experiment: Cell viability (XTT), HepG2; format: cell-based
Method: as §1, §2

Row | Compound | Local tissue reactions [1] | Level of phosphorylation in intact cells, substrate IR (insulin receptor (IR)) | EC50 [2] | IC50 (IGF-1R; in vitro, stated in description, read-out: IC50 for IGF-1R-inhibition when tested in vitro) | EC50 (HepG2 hepatoma cell line; Homo sapiens, HepG2, 48 h, read-out: EC50 for cell viability) | Local toxicity: effects on skin and subcutaneous tissue ([1]; subcutaneous osmotic pump, 7 mg/kg/d) | EC50 ([2]; R- (IGF-1R negative fibroblasts)) | IC50 (IGF-1R; cell-free, ATP 19-300 μM in reaction buffer, read-out: IC50, autophosphorylation of IGF-1R at various ATP concentrations) | IC50 (IGF-1R; cell-free, FIG. 4, read-out: IC50, autophosphorylation of IGF-1R) | EC50 (HepG2 hepatoma cell line; Homo sapiens, HepG2, 48 h; read-out: EC50 for cell viability)
1 | COc1cc([C@@H]2c3cc4c(cc3[C@H](O)[C@H]3COC(=O)[C@H]23)OCO4)cc(OC)c1OC [Podophyllotoxin, podophyllotoxin] | severe tissue reactions with necrosis, bleeding and inflammation | 101 % OD | > 15000 nM | 1 nM | > 15000 nM |  |  |  |  | 
2 | COc1cc([C@@H]2c3cc4c(cc3[C@H](O)[C@H]3COC(=O)[C@@H]23)OCO4)cc(OC)c1OC [Picropodophyllin, picropodophyllin] | no visible reactions | 100 % OD |  |  |  | 0 | > 15000 nM | 1 to 2 nM | ~1 nM | > 15000 nM

— patent US7662851B2, “Use of specific cyklolignans” (Axelar AB, priority 2001, dated 2010)
